Calls of active or inactive are those of the source. How the calls were made is not given here.

The values below come from PubChem BioAssay AID1259407 (Chemical Carcinogenesis Research Information System (CCRIS), 2018).

The test system of the data set is CCRIS mutagenicity, Ames/micronucleus/aberration tests. Nature of the data set: CCRIS mutagenicity studies. The note with it: Test System: AMES SALMONELLA TYPHIMURIUM
The mark [1] stands for this setting: Strain/Indicator: TA100, Metabolic Activation: NONE, Method: STANDARD PLATE.
The mark [2] stands for this setting: Strain/Indicator: TA1535, Metabolic Activation: NONE, Method: STANDARD PLATE.

With `CN(C)N=Nc1ccc(Cl)cc1`, the mutagenic call was “active; positive” (Strain/Indicator: G46, Metabolic Activation: RAT, LIVER, S-9, PHENOBARBITAL, Method: STANDARD PLATE); “inactive; negative” (Strain/Indicator: TA92, Metabolic Activation: MOUSE, LIVER, S-9, POLYCHLORINATED BIPHENYLS, Method: PREINCUBATION); “inactive; negative” (Strain/Indicator: TA92, Metabolic Activation: MOUSE, LIVER, S-9, POLYCHLORINATED BIPHENYLS, Method: STANDARD PLATE); “inactive; negative” (Strain/Indicator: TA92, Metabolic Activation: NONE, Method: STANDARD PLATE); “active; positive” (Strain/Indicator: TA97, Metabolic Activation: MOUSE, LIVER, S-9, POLYCHLORINATED BIPHENYLS, Method: PREINCUBATION); “active; positive” (Strain/Indicator: TA97, Metabolic Activation: MOUSE, LIVER, S-9, POLYCHLORINATED BIPHENYLS, Method: STANDARD PLATE). In addition, the mutagenic call (Strain/Indicator: TA97, Metabolic Activation: NONE, Method: STANDARD PLATE) is “inactive; negative”; the mutagenic call (Strain/Indicator: TA98, Metabolic Activation: MOUSE, LIVER, S-9, POLYCHLORINATED BIPHENYLS, Method: PREINCUBATION) is “active; positive”; the mutagenic call (Strain/Indicator: TA98, Metabolic Activation: MOUSE, LIVER, S-9, POLYCHLORINATED BIPHENYLS, Method: STANDARD PLATE) is “active; positive”; the mutagenic call (Strain/Indicator: TA98, Metabolic Activation: NONE, Method: STANDARD PLATE) was “active; positive”; the mutagenic call (Strain/Indicator: TA100, Metabolic Activation: MOUSE, LIVER, S-9, POLYCHLORINATED BIPHENYLS, Method: PREINCUBATION) is “active; positive”; the mutagenic call (Strain/Indicator: TA100, Metabolic Activation: MOUSE, LIVER, S-9, POLYCHLORINATED BIPHENYLS, Method: STANDARD PLATE) is “inactive; negative”. Moreover, the mutagenic call is “inactive; negative” under setting [1]; “active; positive” (Strain/Indicator: TA1535, Metabolic Activation: MOUSE, LIVER, S-9, POLYCHLORINATED BIPHENYLS, Method: PREINCUBATION); “inactive; negative” (Strain/Indicator: TA1535, Metabolic Activation: MOUSE, LIVER, S-9, POLYCHLORINATED BIPHENYLS, Method: STANDARD PLATE); “inactive; negative” under setting [2]; “active; positive” (Strain/Indicator: TA1537, Metabolic Activation: MOUSE, LIVER, S-9, POLYCHLORINATED BIPHENYLS, Method: PREINCUBATION); “active; positive” (Strain/Indicator: TA1537, Metabolic Activation: MOUSE, LIVER, S-9, POLYCHLORINATED BIPHENYLS, Method: STANDARD PLATE). The mutagenic call is “active; positive” (Strain/Indicator: TA1537, Metabolic Activation: NONE, Method: STANDARD PLATE); “active; positive” (Strain/Indicator: TA1538, Metabolic Activation: MOUSE, LIVER, S-9, POLYCHLORINATED BIPHENYLS, Method: PREINCUBATION); “active; positive” (Strain/Indicator: TA1538, Metabolic Activation: MOUSE, LIVER, S-9, POLYCHLORINATED BIPHENYLS, Method: STANDARD PLATE); “inactive; negative” (Strain/Indicator: TA1538, Metabolic Activation: NONE, Method: STANDARD PLATE).

Take `Cc1ccc(CCC2CO2)cc1` (stereo unspecified): the mutagenic call (Strain/Indicator: TA100, Metabolic Activation: NONE, Method: PREINCUBATION) is “inactive; negative”; the mutagenic call under setting [1] was “active; positive”; the mutagenic call (Strain/Indicator: TA1535, Metabolic Activation: NONE, Method: PREINCUBATION) was “inactive; negative”; the mutagenic call under setting [2] was “active; positive”.
